Literature values, collected in patent publication US20150024505A1, “APPARATUS FOR EVALUATING CARBONATE SOLUBILITY” (SAUDI ARABIAN OIL COMPANY, priority 2013, published 2015).

Settings: in water; 10,000 psig and 300° F. required to reach this level

limit of CO2 solubility: about 150 scf/stb of water
SMILES: O=C=O [CO2]
